In ChEMBL document CHEMBL1201862, “PubChem BioAssay data set” (2004):
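A five-concentration, 48-hour dose response in 96-well plates underlies each endpoint, interpolated linearly between surrounding concentrations. At the GI50, growth is halved.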 Active and inactive are the calls of the source. Rule as the data show it: active = GI50 up to about 1.1 µM and inactive = higher.

Legend:
Assay in all cases: DTP human tumour cell line panel, 48 h
[1] = test system: A498
[2] = test system: CAKI-1
[3] = test system: CCRF-CEM
[4] = test system: COLO 205
[5] = test system: HL-60
[6] = test system: KM12
[7] = test system: MOLT-4
[8] = test system: Malme-3M
[9] = test system: OVCAR-4
[10] = test system: OVCAR-5
[11] = test system: OVCAR-8
[12] = test system: SF-268
[13] = test system: SK-MEL-28
[14] = test system: TK-10
[15] = test system: HCC 2998
[16] = test system: HCT-116
[17] = test system: OVCAR-3
[18] = test system: RPMI-8226

Measured: GI50

O=c1cc2n(c(=O)[nH]1)C1OC(C(O)C1O)[C@H]2CCO (some centres undefined)
inactive: [1] > 100 µM | [2] > 100 µM | [3] > 100 µM | [4] > 100 µM | [5] > 100 µM | [6] > 100 µM | [7] > 100 µM | [8] > 100 µM | [9] > 100 µM | [10] > 100 µM | [11] > 100 µM | [12] > 100 µM | [13] > 100 µM | [14] > 100 µM

O=C(CC1(O)C(=O)Nc2c(Cl)ccc(Cl)c21)c1ccc(Cl)cc1Cl (centres undefined)
inactive: [1] 26.3 µM | [2] 20.3 µM | [4] 17.6 µM | [15] 15.7 µM | [16] 19.1 µM | [6] 16.5 µM | [8] 20.4 µM | [17] 16.2 µM | [9] 10.4 µM | [10] 16.6 µM | [11] 20.7 µM | [18] 19.5 µM | [12] 27.6 µM | [13] 21.7 µM | [14] 50.1 µM

CCC1CCC2CCCC(C)N12 (centres undefined)
inactive: [2] > 100 µM | [3] > 100 µM | [4] > 100 µM | [15] > 100 µM | [16] > 100 µM | [5] > 100 µM | [6] > 100 µM | [7] > 100 µM | [8] > 100 µM | [17] > 100 µM | [9] > 100 µM | [11] > 100 µM | [18] > 100 µM | [12] > 100 µM | [13] > 100 µM | [14] > 100 µM

Cc1ccc(F)c2c(=O)cc(-c3ccccc3)[nH]c12
inactive: [2] > 100 µM | [3] > 100 µM | [4] > 100 µM | [16] > 100 µM | [5] > 100 µM | [6] 98.2 µM | [7] > 100 µM | [8] > 100 µM | [9] > 100 µM | [10] > 100 µM | [11] > 100 µM | [18] > 100 µM | [12] > 100 µM | [13] > 100 µM | [14] > 100 µM

O=C(/N=C(/Nc1ccccc1)SCCS/C(=N\C(=O)c1ccccc1)Nc1ccccc1)c1ccccc1
inactive: [1] 58.7 µM | [2] 33.7 µM | [3] 64.6 µM | [4] > 100 µM | [15] 34.9 µM | [16] 46.8 µM | [6] 62.5 µM | [7] 38.7 µM | [8] > 100 µM | [17] 67.9 µM | [9] 42.1 µM | [10] > 100 µM | [11] 71.1 µM | [18] 48.2 µM | [12] 41.5 µM | [13] 49.8 µM | [14] > 100 µM

CC(=O)NNc1ncc(C(=O)/C=C/c2ccccc2C)s1
inactive: [1] > 100 µM | [2] > 100 µM | [3] > 100 µM | [4] > 100 µM | [15] > 100 µM | [5] > 100 µM | [6] > 100 µM | [7] > 100 µM | [8] > 100 µM | [17] > 100 µM | [10] > 100 µM | [11] > 100 µM | [18] > 100 µM | [12] > 100 µM | [13] > 100 µM | [14] > 100 µM

CCOc1ccc(N(CC(=O)N2CC(=O)Nc3cc(C)c(C)cc32)C(C)=O)cc1
inactive: [2] > 100 µM | [3] > 100 µM | [4] > 100 µM | [15] > 100 µM | [16] > 100 µM | [5] > 100 µM | [6] > 100 µM | [7] > 100 µM | [8] > 100 µM | [17] 63.8 µM | [9] > 100 µM | [10] > 100 µM | [11] > 100 µM | [18] > 100 µM | [12] 87.5 µM | [13] > 100 µM | [14] > 100 µM

O=C(c1ccccc1)[C@H]1Nc2ccc(Cl)cc2[C@H]2c3ccccc3O[C@H]21
inactive: [1] 12.1 µM | [2] 14 µM | [4] 18.7 µM | [15] 16.8 µM | [16] 17.2 µM | [6] 16.1 µM | [7] 4.82 µM | [8] 15.8 µM | [17] 13.1 µM | [9] 18.2 µM | [10] 16 µM | [11] 16.4 µM | [18] 27 µM | [12] 18.1 µM | [13] 12.3 µM | [14] 16.7 µM

CC(=O)O[C@H]1CC2C=CC3C(CCC31)O2 (some centres undefined)
inactive: [2] > 100 µM | [3] > 100 µM | [4] > 100 µM | [15] > 100 µM | [5] 80 µM | [7] > 100 µM | [8] > 100 µM | [17] > 100 µM | [9] > 100 µM | [11] > 100 µM | [12] > 100 µM | [13] > 100 µM | [14] > 100 µM

CCOc1cn(C2OC(CO)C(O)C2O)c(=O)[nH]c1=O (centres undefined)
inactive: [1] > 100 µM | [2] > 100 µM | [3] > 100 µM | [4] 95.5 µM | [15] > 100 µM | [16] > 100 µM | [5] > 100 µM | [6] > 100 µM | [7] > 100 µM | [8] > 100 µM | [17] > 100 µM | [10] > 100 µM | [11] > 100 µM | [18] > 100 µM | [12] > 100 µM | [13] > 100 µM | [14] > 100 µM

CCCCC1(C(NC(=O)c2ccccc2Cl)c2ccncc2)C(=O)N(c2ccccc2)N(c2ccccc2)C1=O (centres undefined)
inactive: [3] 27.9 µM | [4] 22.6 µM | [15] 57.5 µM | [16] 23.9 µM | [5] 17.6 µM | [6] 81.3 µM | [7] 11.9 µM | [8] 61 µM | [17] 60 µM | [10] > 100 µM | [11] 75 µM | [18] 21.2 µM | [12] > 100 µM | [13] > 100 µM | [14] 41 µM

CCCCCCCCc1cc2c(O)c(c1)Cc1cc(CCCCCCCC)cc(c1O)Cc1cc(CCCCCCCC)cc(c1O)Cc1cc(CCCCCCCC)cc(c1O)Cc1cc(CCCCCCCC)cc(c1O)Cc1cc(CCCCCCCC)cc(c1O)C2
inactive: [1] > 100 µM | [2] > 100 µM | [3] > 100 µM | [4] > 100 µM | [15] > 100 µM | [16] > 100 µM | [5] > 100 µM | [6] > 100 µM | [7] > 100 µM | [8] > 100 µM | [10] > 100 µM | [11] > 100 µM | [12] > 100 µM | [13] > 100 µM | [14] > 100 µM

CC(C)C1C(=O)NC(CO)Cc2c[nH]c3c(C(c4c[nH]c5ccccc45)C(O)CO)ccc(c23)N1C (centres undefined)
inactive: [1] 14.5 µM | [3] 30.1 µM | [4] 4.79 µM | [15] 3.38 µM | [16] > 100 µM | [5] 5.11 µM | [6] > 100 µM | [7] 49 µM | [17] > 100 µM | [9] > 100 µM | [11] > 100 µM | [18] > 100 µM | [12] > 100 µM | [13] > 100 µM | [14] 36.3 µM

O=C1CC[C@@H](NC(=O)Cc2ccccc2)C(=O)N1
inactive: [1] > 100 µM | [2] > 100 µM | [3] > 100 µM | [4] > 100 µM | [15] > 100 µM | [16] > 100 µM | [6] > 100 µM | [7] > 100 µM | [8] > 100 µM | [17] > 100 µM | [9] > 100 µM | [10] > 100 µM | [11] > 100 µM | [18] > 100 µM | [12] > 100 µM | [13] > 100 µM | [14] > 100 µM

O=c1/c(=C/c2ccc(Cl)cc2Cl)sc2nc3ccccc3n12
inactive: [1] > 100 µM | [2] > 100 µM | [3] > 100 µM | [4] > 100 µM | [15] > 100 µM | [16] 71.9 µM | [5] > 100 µM | [6] > 100 µM | [7] > 100 µM | [8] > 100 µM | [17] > 100 µM | [9] > 100 µM | [10] > 100 µM | [11] > 100 µM | [12] > 100 µM | [13] > 100 µM | [14] > 100 µM

COC1=CC(=O)C2C(C1=O)C(c1ccccc1)[C@H]2C (some centres undefined)
inactive: [1] > 100 µM | [3] 28.4 µM | [4] > 100 µM | [15] > 100 µM | [5] 38.9 µM | [6] > 100 µM | [7] > 10 µM | [8] 26.1 µM | [17] 87.1 µM | [10] > 100 µM | [11] 45.6 µM | [18] 35.9 µM | [12] > 100 µM | [13] > 100 µM | [14] > 100 µM

O=C1Sc2ccccc2C(=O)N2CSCC12 (centres undefined)
inactive: [3] > 100 µM | [4] > 100 µM | [15] > 100 µM | [16] > 100 µM | [5] > 100 µM | [6] > 100 µM | [7] > 100 µM | [8] > 100 µM | [17] > 100 µM | [11] > 100 µM | [18] > 100 µM | [12] > 100 µM | [13] > 100 µM | [14] > 100 µM
